Measurements as given in US6403343B2, “Method of producing a taxane-type diterpene and a method of obtaining cultured cells which produce the taxane-type dilterpene at a high rate” (Mitsui Chemicals, Inc., priority 1993, dated 2002).

Experiments:
Type in all cases: cell-based
[1] = tested on: cultured cells of Taxus baccata LINN; assay: Taxane-type diterpenes in the culture medium after adding 100 μM methyl jasmonate (FIG. 1, FIG. 2); details: 7th day after the addition
Method: The analytical results of taxane-type diterpenes existed in the culture medium of Example 15 prior to the addition of 100 μM of methyl jasmonate, on the third day after the addition, and on the 7th day after the addition, are shown in FIG. 1 and FIG. 2 On the 7th day of the culture, about half of the taxol and about 70% of the baccatin III were leaked in the medium.
The procedure of Example 20 was carried out except that the methyl ester of jasmonic acid was not added.

[2] = tested on: cultured cells of Taxus baccata LINN, layer of 1.07 g/ml or less; assay: Same culture using cells of the specific gravity layer of 1.07 g/ml or less (Ficoll), jasmonic acids added; details: 250 μM added on 14th day, 7 more days; cells of layer of 1.07 g/ml or less
Method: (§1) The cells with accelerated growth rate obtained by the method of Example 1 were fractionated firstly by a stainless steel mesh and cell clusters having the size of 250-840 μm were obtained. A medium having a specific gravity of 1.07 (g/ml) was produced by the use of Ficoll and the above-mentioned cells were layered over it and centrifuged at 700 rpm for 6 minutes. The cells were fractionated into two layers according to the difference of the specific gravity. The cells contained in the layer of 1.07 g/ml or less were fractionated and washed with 2% sucrose solution three times or more, to wash off Ficoll. After the washing, 1 g (fresh weight) of the cells was transferred to an Erlenmeyer flask containing 20 ml of liquid Woody Plant Medium and shake culture was carried out at 25° C. for 14 days. […] After completing the culture, the procedure of Example 1 was carried out.
as §1, with “growth rates” for “growth rate”, “Example 8” for “Example 1”, “was inoculated” for “was transferred”
as §1, with “Example 15” for “Example 1”, “was inoculated” for “was transferred”

[3] = tested on: cultured cells of Taxus baccata LINN; assay: Taxane-type diterpene yield and cell yield, shake culture of Taxus baccata cells with a jasmonic acid (or jasmone) added
[4] = tested on: cultured cells of Taxus brevifolia NUTT; assay: Taxane yield, Taxus brevifolia cultured cells with jasmonic acids added; details: 250 μM added on 14th day, 7 more days
Method: After completing the culture, the procedure of Example 1 was carried out.
After completing the culture, the procedure of Example 8 was carried out.
After completing the culture, the procedure of Example 15 was carried out.

[5] = tested on: cultured cells of T. media; assay: Taxane yield, T. media cultured cells with jasmonic acids added; details: 250 μM added on 14th day, 7 more days
Method: The procedure of Example 6 was carried out except that cultured cells of T. media were used.
The procedure of Example 13 was carried out except that cultured cells of T. media were used.
The procedure of Example 22 was carried out except that cultured cells of T. media were used.

[6] = 0.01 μM added on 14th day, 7 more days
[7] = 0.1 μM added on 14th day, 7 more days
[8] = 1 μM added on 14th day, 7 more days
[9] = 10 μM added on 14th day, 7 more days
[10] = 25 μM added 4 times every two days from 7th day, total 100 μM
[11] = 50 μM added on 14th day, 7 more days
[12] = 100 μM added on 7th day, 14 more days
[13] = 100 μM added on 14th day, 7 more days
[14] = 100 μM added on first day, 20 more days
[15] = 250 μM added on 14th day, 7 more days
[16] = 500 μM added on 14th day, 7 more days
[17] = 1000 μM added on 14th day, 7 more days

`CC/C=C\CC1C(=O)CCC1CC(=O)OC` (centres unmarked) [methyl jasmonate] was tested, and the “baccatin III leaked in the medium” value [1] was “about 70%”, the “taxol leaked in the medium” value [1] was “about half” and the cell yield [2] was 10.2 g/L. The “yield of baccatin III” value [2] was 18.7 mg/L, the yield of cephalomannine [2] was 3.2 mg/L and the yield of taxol [2] was 43.1 mg/L. The cell yield [3, 6] was 12.2 g/L, the “yield of baccatin III” value [3, 6] was 0.3 mg/L and the yield of cephalomannine [3, 6] was 1.6 mg/L. For the same compound, the yield of taxol [3, 6] was 3.2 mg/L, the cell yield [3, 7] was 12.1 g/L and the “yield of baccatin III” value [3, 7] was 0.3 mg/L. The yield of cephalomannine [3, 7] was 1.6 mg/L, the yield of taxol [3, 7] was 4.2 mg/L and the cell yield [3, 8] was 11.3 g/L. The “yield of baccatin III” value [3, 8] was 0.4 mg/L, the yield of cephalomannine [3, 8] was 1.8 mg/L and the yield of taxol [3, 8] was 4.9 mg/L. For the same compound, the cell yield [3, 9] was 11.3 g/L, the “yield of baccatin III” value [3, 9] was 0.7 mg/L and the yield of cephalomannine [3, 9] was 2.1 mg/L. The yield of taxol [3, 9] was 10.8 mg/L, the cell yield [3, 10] was 10.7 g/L and the “yield of baccatin III” value [3, 10] was 14.9 mg/L. It also gave a yield of cephalomannine [3, 10] of 2.2 mg/L, a yield of taxol [3, 10] of 16.7 mg/L and a cell yield [3, 11] of 10.9 g/L. For the same compound, the “yield of baccatin III” value [3, 11] was 3.1 mg/L, the yield of cephalomannine [3, 11] was 2.2 mg/L and the yield of taxol [3, 11] was 10.9 mg/L. The cell yield [3, 12] was 9.7 g/L, the “yield of baccatin III” value [3, 12] was 10.6 mg/L and the yield of cephalomannine [3, 12] was 2.1 mg/L. For the same compound, the yield of taxol [3, 12] was 14.2 mg/L, the cell yield [3, 13] was 9.8 g/L and the “yield of baccatin III” value [3, 13] was 9.2 mg/L. For the same compound, the yield of cephalomannine [3, 13] was 2.0 mg/L, the yield of taxol [3, 13] was 13.5 mg/L and the cell yield [3, 14] was 7.2 g/L. For the same compound, the “yield of baccatin III” value [3, 14] was 1.2 mg/L, the yield of cephalomannine [3, 14] was 1.7 mg/L and the yield of taxol [3, 14] was 4.5 mg/L. For the same compound, the cell yield [3, 15] was 10.0 g/L, the “yield of baccatin III” value [3, 15] was 12.9 mg/L and the yield of cephalomannine [3, 15] was 2.0 mg/L. The yield of taxol [3, 15] was 15.1 mg/L, the cell yield [3, 16] was 10.6 g/L and the “yield of baccatin III” value [3, 16] was 13.0 mg/L. It also gave a yield of cephalomannine [3, 16] of 1.9 mg/L, a yield of taxol [3, 16] of 12.6 mg/L and a cell yield [3, 17] of 5.9 g/L. For the same compound, the “yield of baccatin III” value [3, 17] was 1.2 mg/L, the yield of cephalomannine [3, 17] was 1.8 mg/L and the yield of taxol [3, 17] was 3.1 mg/L.

For `COC(=O)C[C@H]1CCC(=O)[C@H]1C/C=C\CCO` [methyl tuberonate], the cell yield [4] was 10.0 g/L, the “yield of baccatin III” value [4] was 1.4 mg/L and the yield of cephalomannine [4] was 0.5 mg/L. The yield of taxol [4] was 3.3 mg/L, the cell yield [2] was 12.2 g/L and the “yield of baccatin III” value [2] was 17.4 mg/L. It also gave a yield of cephalomannine [2] of 3.1 mg/L, a yield of taxol [2] of 28.3 mg/L and a cell yield [5] of 9.5 g/L. For the same compound, the “yield of baccatin III” value [5] was 10.4 mg/L, the yield of cephalomannine [5] was 0.5 mg/L and the yield of taxol [5] was 5.4 mg/L. The cell yield [3, 6] was 14.3 g/L, the “yield of baccatin III” value [3, 6] was 0.4 mg/L and the yield of cephalomannine [3, 6] was 1.3 mg/L. The yield of taxol [3, 6] was 4.6 mg/L, the cell yield [3, 7] was 13.5 g/L and the “yield of baccatin III” value [3, 7] was 0.5 mg/L. It also gave a yield of cephalomannine [3, 7] of 1.5 mg/L, a yield of taxol [3, 7] of 5.5 mg/L and a cell yield [3, 8] of 13.2 g/L. For the same compound, the “yield of baccatin III” value [3, 8] was 0.7 mg/L, the yield of cephalomannine [3, 8] was 1.8 mg/L and the yield of taxol [3, 8] was 6.9 mg/L. The cell yield [3, 9] was 13.0 g/L, the “yield of baccatin III” value [3, 9] was 0.9 mg/L and the yield of cephalomannine [3, 9] was 2.2 mg/L. For the same compound, the yield of taxol [3, 9] was 14.8 mg/L, the cell yield [3, 10] was 12.9 g/L and the “yield of baccatin III” value [3, 10] was 13.5 mg/L. The yield of cephalomannine [3, 10] was 2.3 mg/L, the yield of taxol [3, 10] was 22.5 mg/L and the cell yield [3, 12] was 12.5 g/L. The “yield of baccatin III” value [3, 12] was 10.5 mg/L, the yield of cephalomannine [3, 12] was 2.1 mg/L and the yield of taxol [3, 12] was 15.6 mg/L. The cell yield [3, 13] was 12.7 g/L, the “yield of baccatin III” value [3, 13] was 12.2 mg/L and the yield of cephalomannine [3, 13] was 2.4 mg/L. For the same compound, the yield of taxol [3, 13] was 16.5 mg/L, the cell yield [3, 14] was 7.1 g/L and the “yield of baccatin III” value [3, 14] was 1.0 mg/L. It also gave a yield of cephalomannine [3, 14] of 1.3 mg/L, a yield of taxol [3, 14] of 4.0 mg/L and a cell yield [3, 15] of 12.5 g/L. For the same compound, the “yield of baccatin III” value [3, 15] was 14.5 mg/L, the yield of cephalomannine [3, 15] was 2.2 mg/L and the yield of taxol [3, 15] was 21.1 mg/L. The cell yield [3, 16] was 11.6 g/L, the “yield of baccatin III” value [3, 16] was 15.0 mg/L and the yield of cephalomannine [3, 16] was 2.3 mg/L. The yield of taxol [3, 16] was 10.6 mg/L, the cell yield [3, 17] was 7.5 g/L and the “yield of baccatin III” value [3, 17] was 1.2 mg/L. For the same compound, the yield of cephalomannine [3, 17] was 1.8 mg/L and the yield of taxol [3, 17] was 3.9 mg/L.
